We go through six molecules from patent US8709743B2, “Inhibitors of bacterial nitric oxide synthase, and related screening methods” (Massachusetts Institute of Technology, priority 2007, dated 2014).

Data set [1] concerns SK—N—SH human neuroblastoma cells. Nature of the data set: Detection of NO produced by cNOS in estradiol-stimulated SK—N—SH cells (fluorescence microscopy). Type of data set: cell-based. As to the method: (§1) FIG. 10 illustrates Cu(FL5) detection of NO produced by cNOS. (a) NO detection in SK—N—SH cells by Cu^II(FL5). Left to right: 25 min incubation of Cu(FL5) (1 μM) and 5, 10, 15, 25 min after co-treatment of Cu(FL5) (1 μM) and 17β-estradiol (100 nM). Images were taken with a Nikon Eclipse TS100 microscope after removing the DMEM media and washing the cells with PBS. Top: fluorescence images; bottom: phase contrast images. (b) Fluorescence intensity (F(t)/FCu(FL5)) from a was plotted against incubation time. (c) NO production with or without of L-NNA. Right: NO detection in cells after 10 min co-incubation of Cu(FL5) (1 μM) and 17β-estradiol (100 nM). Left: NO detection in cells pre-treated with L-NNA for 1 h before addition of Cu(FL5) and 17β-estradiol.
We investigated the ability of Cu(FL5) to detect NO produced in SK—N—SH human neuroblastoma cells under physiological conditions, since constitutive NO synthase (“cNOS”) in this cell line can be activated by estrogen to produce NO. […] The NO-dependent fluorescence response, monitored after simultaneous administration of 17β-estradiol (100 nM) and Cu(FL5) (1 μM) to the cells, was complete within 5 min with a 4.0±0.6-fold increase in fluorescence (FIGS. 10a and b). […]
Firstly, Cu(FL5) visualizes NO in the estradiol-stimulated neuroblastoma cells with brighter fluorescence than DAF-2 DA (o-diaminofluorescein diacetate). […]

Data set [2] in a line: FL5 binding of Cu(II): absorption titration with CuCl2 and fluorescence quenching. To be noted: 1 μM FL5 solution, 37° C. As to the method:
Derivatized fluorescein molecules are excellent biosensors because they excite and emit in a region of the visible spectrum that is relatively free of interference. We prepared the fluorescein-based ligand FL5 (FIG. 7) by reacting 7′-chloro-4′-fluorescein-carboxaldehyde with 8-aminoquinaldine. We generated the Cu(II) fluorescein-based NO probe Cu(FL5) (FIG. 4) in situ reacting FL5 (prepared as described below) with CuCl2 in a 1:1 ratio in buffered aqueous solution (50 mM PIPES, pH 7.0, 100 mM KCl). […] A Job's plot was constructed to evaluate the nature of the FL5:Cu(II) complex by following the UV-vis absorption spectral change at 512 nm in pH 7.0 buffered solution. A break at 0.5 indicated the formation of a 1:1 complex.
The fluorescence of a 1 μM FL5 solution was diminished by 18±3% upon introduction of an equimolar quantity of CuCl2 at 37° C. Addition of excess NO to a buffered aqueous Cu(FL5) solution led to an immediate 11.2±1.5-fold increase in fluorescence (FIG. 8). […] The lower detection limit for NO is 5 nM.

Data set [3] deals with Raw 264.7 murine macrophage. Nature of the data set: Detection of NO produced by iNOS in LPS and IFN-γ stimulated Raw 264.7 cells (fluorescence microscopy). To be noted: 12 h incubation period. The format is cell-based.
A short description of data set [4]: Fluorescence response of the sensor to NO in buffered aqueous solution.
Data set [5] is described as follows: Stability of nitrosated ligand at pH 7.0 (LC-MS). Type of data set: physicochemical. To be noted: pH 7.0 buffered aqueous solution. The source says: High resolution MS of FL5-^14NO and FL-^15NO were also obtained, showing m/z=600.0729 for FL5-^14NO and 601.0736 for FL5-^15NO, corresponding to [FL5+NO—H+Cl]^− (calcd. m/z 600.0729 and 601.0700).
In data set [6] the target is T1, iNOS (Mus musculus, UniProt P29477).
T1 construct: endogenous in cells; host or cells: Raw 264.7 murine macrophage cells (ATCC), stimulated with LPS and IFN-gamma
The experiment in a line: Attenuation of Cu(FL5) fluorescence response by iNOS inhibitor in stimulated Raw 264.7 cells. The format is cell-based, murine.

For data set [7], the system named is cNOS. The experiment in a line: Attenuation of Cu(FL5) fluorescence response by cNOS inhibitor in SK—N—SH cells. The format is cell-based, human. To be noted: SK—N—SH cells pre-treated with L-NNA for 1 h, 17β-estradiol. As to the method: as §1
We investigated the ability of Cu(FL5) to detect NO produced in SK—N—SH human neuroblastoma cells under physiological conditions, since constitutive NO synthase (“cNOS”) in this cell line can be activated by estrogen to produce NO. Estrogen administration leads to an increase in the cytosolic Ca(II) concentration that alters the structure of calmodulin, which in turn activates cNOS. The NO-dependent fluorescence response, monitored after simultaneous administration of 17β-estradiol (100 nM) and Cu(FL5) (1 μM) to the cells, was complete within 5 min with a 4.0±0.6-fold increase in fluorescence (FIGS. 10a and b). […]

T1 sequence (P29477 whole entry): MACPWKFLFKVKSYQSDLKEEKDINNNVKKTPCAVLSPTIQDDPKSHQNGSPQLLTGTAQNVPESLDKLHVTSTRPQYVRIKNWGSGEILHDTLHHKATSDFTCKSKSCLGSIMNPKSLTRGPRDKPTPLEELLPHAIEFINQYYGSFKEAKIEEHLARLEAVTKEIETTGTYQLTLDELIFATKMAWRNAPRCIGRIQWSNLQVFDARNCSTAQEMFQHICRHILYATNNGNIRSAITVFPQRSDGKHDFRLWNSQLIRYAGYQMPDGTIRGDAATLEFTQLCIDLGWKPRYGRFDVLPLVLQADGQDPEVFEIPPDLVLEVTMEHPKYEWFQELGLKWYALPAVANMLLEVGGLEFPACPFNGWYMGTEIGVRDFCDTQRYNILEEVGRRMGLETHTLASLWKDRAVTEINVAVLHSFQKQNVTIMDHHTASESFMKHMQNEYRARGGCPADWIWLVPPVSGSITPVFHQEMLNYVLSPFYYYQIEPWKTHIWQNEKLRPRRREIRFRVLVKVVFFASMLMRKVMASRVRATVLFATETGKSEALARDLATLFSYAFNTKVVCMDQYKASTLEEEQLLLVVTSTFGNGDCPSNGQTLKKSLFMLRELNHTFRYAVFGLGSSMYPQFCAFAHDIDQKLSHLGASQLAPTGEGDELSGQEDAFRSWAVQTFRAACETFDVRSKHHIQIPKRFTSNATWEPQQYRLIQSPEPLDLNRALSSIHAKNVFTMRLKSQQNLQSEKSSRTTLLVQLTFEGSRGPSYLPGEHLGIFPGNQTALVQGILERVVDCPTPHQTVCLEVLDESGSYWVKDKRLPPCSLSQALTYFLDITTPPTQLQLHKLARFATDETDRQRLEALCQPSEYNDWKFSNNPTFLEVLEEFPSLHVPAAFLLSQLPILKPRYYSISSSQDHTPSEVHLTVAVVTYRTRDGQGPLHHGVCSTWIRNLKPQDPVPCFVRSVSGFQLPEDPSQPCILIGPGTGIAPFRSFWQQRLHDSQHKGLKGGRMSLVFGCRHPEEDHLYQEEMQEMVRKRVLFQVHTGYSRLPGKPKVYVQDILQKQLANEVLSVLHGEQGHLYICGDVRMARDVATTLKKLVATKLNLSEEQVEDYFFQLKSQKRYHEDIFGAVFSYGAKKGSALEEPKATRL

In the case of `CC(=O)Oc1ccc2c(c1)Oc1cc(OC(C)=O)ccc1C21OC(=O)c2cc(N)c(N)cc21` [DAF-2 DA, o-diaminofluorescein diacetate, reference compound], the “fluorescence change of treated cells after activation of cNOS” value in data set [1] (30 min after activation of cNOS) is recorded as “only a slight fluorescence increase”.
Consider `Cc1ccc2cccc(NCc3c(O)ccc4c(-c5ccccc5C(=O)O)c5cc(Cl)c(=O)cc-5oc34)c2n1` [FL5, 2-{2-chloro-6-hydroxy-5-[(2-methyl-quinolin-8-ylamino)-methyl]-3-oxo-3H-xanthen-9-yl}-benzoic acid], for which, in data set [2], the “fluorescence diminished upon introduction of an equimolar quantity of CuCl2” value amounted to 18±3%. The “fluorescence change in stimulated SK—N—SH cells in the absence of Cu(II) ion” value in data set [1] (over a period of 25 min) is reported as “no fluorescence increase”. Also, the “turn-on fluorescence in stimulated Raw 264.7 cells without Cu(II) ion” value in data set [3] is on record as “turn-on fluorescence emission was not observed”. The “increase in fluorescence when treated with excess NO over 30 min” value in data set [4] (no Cu(II): copper-free FL5 or FL5 with Cu(I)) is 1.5±0.2 fold.
As for `Cc1ccc2cccc(N(Cc3c(O)ccc4c(-c5ccccc5C(=O)O)c5cc(Cl)c(=O)cc-5oc34)N=O)c2n1` [FL5-NO, 2-{2-chloro-6-hydroxy-5-[((2-methylquinolin-8-yl)(nitroso)amino)-methyl]-3-oxo-3H-xanthen-9-yl}-benzoic acid], in data set [5], the “stability at pH 7.0” value is reported as “stable for several days”.
Turning to `CNC(=N)NCCC[C@H](N)C(=O)O` [L-NMA, N^G-methyl-L-arginine], in data set [6], the “Cu(FL5) fluorescence response in the presence of iNOS inhibitor” value is given as “notably weaker fluorescence response”.
Turning to `N=C(NCCC[C@H](N)C(=O)O)N[N+](=O)[O-]` [L-NNA, N^G-nitro-L-arginine], the “Cu(FL5) fluorescence response in the presence of cNOS inhibitor” value in data set [7] is “notably weaker fluorescence response”.
As to “o-diaminofluorescein [DAF-2, reference compound]”, the “fluorescence in the presence of NO and the absence of O2” value in data set [4] (over a period of 1 h) is listed as “unchanged”.
